Measured values taken from US20200009173A1, “TRIAZOLE-CONTAINING MACROLIDES AND OPHTHALMIC USES THEREFOR” (Tetard, Inc., priority 2017, published 2020).
In brackets after ≈: the same amount, converted by molar mass. Read-outs that look alike come from different tables or passages of the source.

What was measured:
P. Acnes = assay: MICs of solithromycin and comparator drugs against P. acnes; format: cell-based; settings: for MIC50 / MIC90: Cutibacterium acnes
Source text: EXAMPLE. The formulations described herein show overall higher potency against ocular pathogens than commercial standards. MICs (μg/ml) of Solithromycin and Comparator Drugs against P. Acnes (51 Species)

CXCL8 = CXCL8 (IL-8) production in LPS-stimulated PMA-differentiated U937 cells (ELISA); format: cell-based, human
Method: (§1) EXAMPLE. […] Cells. The human monocytic cell line U937 was obtained from the American Type Culture Collection (ATCC, Rockville, Md.). PBMCs from COPD patients were obtained from Brompton hospital and separated by AccuSPIN (Sigma-Aldrich). […] U937 cells were differentiated into adherent macrophage-like morphology by exposure to PMA (50 ng/ml) for 48 h in complete growth medium. Cell viability was assessed microscopically by trypan blue staining. Cell toxicity was determined by MTT assay as needed. This study was approved by the ethics committee of the Royal Brompton Hospitals, and all subjects gave written informed consent. Cytokine ELISA. TNFα and IL-8 concentrations in the supernatant of cell cultures were determined by sandwich ELISA according to the manufacturer's instructions (R&D Systems Europe, Abingdon, UK). Statistical analysis. The results were expressed as the mean±SEM. Comparisons of data in two groups were performed using the Student's t test or the Wilcoxon signed rank test. Multiple comparisons were made by one-way ANOVA with post hoc test (Dunnett's) as appropriate. The difference was considered significant at p<0.05. […] Anti-inflammatory effects of solithromycin in U937 cells.

TNFα = TNFα production in LPS-stimulated PMA-differentiated U937 cells (ELISA); format: cell-based, human
Method: as §1

MMP9 = MMP9 activity in PMA-stimulated U937 cells (gelatin zymography); format: cell-based, human
Method: EXAMPLE. […] Cells. The human monocytic cell line U937 was obtained from the American Type Culture Collection (ATCC, Rockville, Md.). PBMCs from COPD patients were obtained from Brompton hospital and separated by AccuSPIN (Sigma-Aldrich). […] U937 cells were differentiated into adherent macrophage-like morphology by exposure to PMA (50 ng/ml) for 48 h in complete growth medium. Cell viability was assessed microscopically by trypan blue staining. Cell toxicity was determined by MTT assay as needed. This study was approved by the ethics committee of the Royal Brompton Hospitals, and all subjects gave written informed consent. Zymography. MMP9 enzyme activity was measured by gelatin zymography. […] After electrophoresis, gels were incubated and rinsed with Novex® zymogram renaturing buffer (Invitrogen) for 30 min at room temperature. The gels were then rinsed in Novex® zymogram developing buffer (Invitrogen) for 30 min at room temperature prior to overnight incubation in the developing buffer at 37° C. After incubation, the gels were stained using a Colloidal Blue Staining Kit (Invitrogen) to visualize the zymogen bands. Statistical analysis. The results were expressed as the mean±SEM. Comparisons of data in two groups were performed using the Student's t test or the Wilcoxon signed rank test. Multiple comparisons were made by one-way ANOVA with post hoc test (Dunnett's) as appropriate. The difference was considered significant at p<0.05.

S. epidermidis = assay: MICs of solithromycin and comparator drugs, S. epidermidis (30 species); format: cell-based; settings: for MIC50 / MIC90: Staphylococcus epidermidis
Source text: (§2) EXAMPLE. The formulations described herein show overall higher potency against ocular pathogens than commercial standards.
(§3) MICs (μg/ml) of Solithromycin and Comparator Drugs against Bacterial Species

H. influenzae = assay: MICs of solithromycin and comparator drugs, H. influenzae (30 species); format: cell-based; settings: for MIC50 / MIC90: Haemophilus influenzae
Source text: as §2, §3

MSRA = assay: MICs of solithromycin and comparator drugs, MSRA (30 species); format: cell-based; settings: for I (intermediate susceptibility) / NS (not susceptible) / S (susceptible): 30 species
Source text: as §2, §3

MSSA = assay: MICs of solithromycin and comparator drugs, MSSA (31 species); format: cell-based; settings: for MIC50 / MIC90: Staphylococcus aureus, MSSA
Source text: as §2, §3

S. pneumoniae = assay: MICs of solithromycin and comparator drugs, S. pneumoniae (30 species); format: cell-based; settings: for MIC50 / MIC90: Streptococcus pneumoniae
Source text: as §2, §3

[1] = at a higher concentration (333 μM)

C=CC1=C(C(=O)O)N2C(=O)[C@@H](NC(=O)/C(=N\O)c3csc(N)n3)[C@H]2SC1 [Cefdinir]
MIC Range (P. Acnes): ≤0.015 to 0.12 µg/mL
MIC50 (P. Acnes; 51 species): 0.03 µg/mL (≈ 0.0759 µM)
MIC90 (P. Acnes; 51 species): 0.12 µg/mL (≈ 0.303 µM)

CC(=O)NC[C@H]1CN(c2ccc(N3CCOCC3)c(F)c2)C(=O)O1 [Linezolid]
MIC Range (P. Acnes): ≤0.03 to 0.5 µg/mL
MIC50 (P. Acnes; 51 species): 0.25 µg/mL (≈ 0.741 µM)
MIC90 (P. Acnes; 51 species): 0.5 µg/mL (≈ 1.48 µM)

C[C@H]1c2cccc(O)c2C(=O)C2=C(O)[C@]3(O)C(=O)C(C(N)=O)=C(O)[C@@H](N(C)C)[C@@H]3[C@@H](O)[C@@H]21 [Doxycycline]
MIC Range (P. Acnes): ≤0.008 to 1 µg/mL
MIC50 (P. Acnes; 51 species): 0.06 µg/mL (≈ 0.135 µM)
MIC90 (P. Acnes; 51 species): 0.12 µg/mL (≈ 0.27 µM)

CC[C@H]1OC(=O)[C@H](C)[C@@H](O[C@H]2C[C@@](C)(OC)[C@@H](O)[C@H](C)O2)[C@H](C)[C@@H](O[C@@H]2O[C@H](C)C[C@H](N(C)C)[C@H]2O)[C@](C)(O)C[C@@H](C)C(=O)[C@H](C)[C@@H](O)[C@]1(C)O [erythromycin]
effect on IL-8 production (CXCL8; concentration not given): did not inhibit
effect on TNFα production (TNFα; concentration not given): did not inhibit
effect on MMP9 activity (MMP9): no effect

CC[C@H]1OC(=O)[C@H](C)[C@@H](O[C@H]2C[C@@](C)(OC)[C@@H](O)[C@H](C)O2)[C@H](C)[C@@H](O[C@@H]2O[C@H](C)C[C@H](N(C)C)[C@H]2O)[C@](C)(OC)C[C@@H](C)C(=O)[C@H](C)[C@@H](O)[C@]1(C)O [Clarithromycin, clarithromycin]
IC50 (CXCL8; Homo sapiens, U-937, LPS, PMA-differentiated U937 cells, read-out: IC50 on CXCL8 release): 506 ± 44 µM
effect on IL-8 production (CXCL8; [1]): modest effects
MIC Range (P. Acnes): ≤0.015 to 0.5 µg/mL
MIC50 (P. Acnes; 51 species): ≤ 0.015 µg/mL
MIC90 (P. Acnes; 51 species): 0.25 µg/mL (≈ 0.334 µM)
IC50 (TNFα; Homo sapiens, U-937, LPS, PMA-differentiated U937 cells, read-out: IC50 on TNFα release): 426 ± 63.9 µM
effect on TNFα production (TNFα; [1]): modest effects
inhibitory effect on MMP9 activity, lower than solithromycin (MMP9): 10 fold

NC[C@H]1O[C@H](O[C@H]2[C@H](O)[C@@H](O[C@H]3O[C@H](CO)[C@@H](O)[C@H](N)[C@H]3O)[C@H](N)C[C@@H]2N)[C@H](N)C[C@@H]1O [Tobramycin]
I (intermediate susceptibility) (S. epidermidis): 3%
MIC Range (S. epidermidis): 0.12 to 64 µg/mL
NS (not susceptible) (S. epidermidis): 23%
S (susceptible) (S. epidermidis): 73%
MIC50 (S. epidermidis): 0.5 µg/mL (≈ 1.07 µM)
MIC90 (S. epidermidis): 32 µg/mL (≈ 68.4 µM)
MIC Range (H. influenzae): 2 to 8 µg/mL
MIC50 (H. influenzae): 4 µg/mL (≈ 8.56 µM)
MIC90 (H. influenzae): 4 µg/mL (≈ 8.56 µM)
MIC50 (MSRA): 1 µg/mL (≈ 2.14 µM)
MIC90 (MSRA): > 64 µg/mL
I (intermediate susceptibility) (MSRA): 3%
NS (not susceptible) (MSRA): 30%
S (susceptible) (MSRA): 67%
I (intermediate susceptibility) (MSSA): 0%
MIC Range (MSSA): 0.12 to 4 µg/mL
NS (not susceptible) (MSSA): 0%
S (susceptible) (MSSA): 100%
MIC50 (MSSA): 0.5 µg/mL (≈ 1.07 µM)
MIC90 (MSSA): 0.5 µg/mL (≈ 1.07 µM)
MIC Range (S. pneumoniae): 4 to 16 µg/mL
MIC50 (S. pneumoniae): 16 µg/mL (≈ 34.2 µM)
MIC90 (S. pneumoniae): 16 µg/mL (≈ 34.2 µM)

C[C@H]1COc2c(N3CCN(C)CC3)c(F)cc3c(=O)c(C(=O)O)cn1c23 [Levofloxacin]
MIC Range (P. Acnes): 0.06 to 2 µg/mL
MIC50 (P. Acnes; 51 species): 1 µg/mL (≈ 2.77 µM)
MIC90 (P. Acnes; 51 species): 1 µg/mL (≈ 2.77 µM)

COCC1=C(C(=O)O)N2C(=O)[C@@H](NC(=O)/C(=N\OC)c3csc(N)n3)[C@H]2SC1 [Cefpodoxime]
MIC Range (P. Acnes): ≤0.015 to 2 µg/mL
MIC50 (P. Acnes; 51 species): 0.5 µg/mL (≈ 1.17 µM)
MIC90 (P. Acnes; 51 species): 2 µg/mL (≈ 4.68 µM)

COc1c(N2C[C@@H]3CCCN[C@@H]3C2)c(F)cc2c(=O)c(C(=O)O)cn(C3CC3)c12 [Moxifloxacin]
I (intermediate susceptibility) (S. epidermidis): 3%
NS (not susceptible) (S. epidermidis): 13%
S (susceptible) (S. epidermidis): 83%
MIC50 (S. epidermidis): 0.06 µg/mL (≈ 0.149 µM)
MIC90 (S. epidermidis): 4 µg/mL (≈ 9.96 µM)
I (intermediate susceptibility) (H. influenzae): 0%
MIC Range (H. influenzae): 0.015 to 0.06 µg/mL
NS (not susceptible) (H. influenzae): 0%
S (susceptible) (H. influenzae): 100%
MIC50 (H. influenzae): 0.03 µg/mL (≈ 0.0747 µM)
MIC90 (H. influenzae): 0.06 µg/mL (≈ 0.149 µM)
MIC50 (MSRA): 2 µg/mL (≈ 4.98 µM)
MIC90 (MSRA): 8 µg/mL (≈ 19.9 µM)
I (intermediate susceptibility) (MSRA): 3%
NS (not susceptible) (MSRA): 87%
S (susceptible) (MSRA): 10%
I (intermediate susceptibility) (MSSA): 0%
MIC Range (MSSA): 0.015 to 2 µg/mL
NS (not susceptible) (MSSA): 6%
S (susceptible) (MSSA): 94%
MIC50 (MSSA): 0.06 µg/mL (≈ 0.149 µM)
MIC90 (MSSA): 0.12 µg/mL (≈ 0.299 µM)
I (intermediate susceptibility) (S. pneumoniae): 0%
MIC Range (S. pneumoniae): 0.015 to 0.25 µg/mL
NS (not susceptible) (S. pneumoniae): 0%
S (susceptible) (S. pneumoniae): 100%
MIC50 (S. pneumoniae): 0.12 µg/mL (≈ 0.299 µM)
MIC90 (S. pneumoniae): 0.25 µg/mL (≈ 0.623 µM)

CN[C@H](CC(C)C)C(=O)N[C@H]1C(=O)N[C@@H](CC(N)=O)C(=O)N[C@H]2C(=O)N[C@H]3C(=O)N[C@H](C(=O)N[C@H](C(=O)O)c4cc(O)cc(O)c4-c4cc3ccc4O)[C@H](O)c3ccc(c(Cl)c3)Oc3cc2cc(c3O[C@@H]2O[C@H](CO)[C@@H](O)[C@H](O)[C@H]2O[C@H]2C[C@](C)(N)[C@H](O)[C@H](C)O2)Oc2ccc(cc2Cl)[C@H]1O [Vancomycin]
MIC Range (P. Acnes; 51 species): 0.12 to 1 µg/mL
MIC50 (P. Acnes; 51 species): 1 µg/mL (≈ 0.69 µM)
MIC90 (P. Acnes; 51 species): 1 µg/mL (≈ 0.69 µM)

CC[C@H]1OC(=O)[C@H](C)C(=O)[C@H](C)[C@@H](O[C@@H]2O[C@H](C)C[C@H](N(C)C)[C@H]2O)[C@](C)(OC)C[C@@H](C)C(=O)[C@H](C)[C@H]2N(CCCCn3cnc(-c4cccnc4)c3)C(=O)O[C@]12C [Telithromycin]
effect on CXCL8 production (CXCL8; at 100 μM): did not inhibit
effect on TNFα production (TNFα; at 100 μM): did not inhibit
IC50 (MMP9; Homo sapiens, U-937): 97.9 µM

C=CC1=C(C(=O)O)N2C(=O)[C@@H](NC(=O)/C(=N\OCC(=O)O)c3csc(N)n3)[C@H]2SC1 [Cefixime]
MIC Range (P. Acnes): ≤0.03 to 0.5 µg/mL
MIC50 (P. Acnes; 51 species): 0.25 µg/mL (≈ 0.551 µM)
MIC90 (P. Acnes; 51 species): 0.5 µg/mL (≈ 1.1 µM)
